The record followed here is PMC9025555, “Chiral Recognition R- and RS- of New Antifungal: Complexation/Solubilization/Dissolution Thermodynamics and Permeability Assay” (Pharmaceutics, 2022).

“And” between values parts separate entries of the source, which are not always exact repeats. Identical values can stand only once.

The nature of data set [1]: Complexation parameters with 2-HP-β-CD from phase-solubility diagrams. Type of data set: physicochemical. Conditions: for increase of the complex stability as compared to L-173: acidic buffer; for Complexation efficiency (CE) / apparent stability constant (KCS): 2-HP-β-CD. The method, then:
Thermodynamic functions of the complexation process were determined from the phase solubility diagrams following Higuchi and Connors. The linear AL-type phase-solubility diagrams evidenced the complexes of the first order in respect to cyclodextrin. The equilibrium of the complex formation with 1:1 stoichiometry in the cyclodextrin solution can be described in the following manner:(1) D+CD↔KCD⋅CD where D is the drug molecule, CD is the cyclodextrin molecule, and D·CD is drug/cyclodextrin complex. Respectively, the complexation constant ( KC ) can be expressed by the equation:(2) KC=[D⋅CD]/[D][CD] where [D·CD] is the complex concentration, [CD] is the cyclodextrin concentration, and [D] is the drug concentration. A plot of total solubility ( S2 expressed in molarity—M) in the presence of CD versus CD concentration ( CCD ) (a phase-solubility profile) gives a straight line with a slope equal to (KCS⋅S20/(1+KCS⋅S20)) and intercept equal to S20 from which the apparent stability constants ( KCS ) were estimated via Higuchi–Connors equation [15]:(3) KCS=slope/S20⋅(1−slope), where S20 is the intrinsic solubility of the drug at designated pH in the absence of CD and the slope is the corresponding slope of the phase-solubility diagram.
From CE, the (D:CD) ratio can be derived, which is useful for the estimation of the solubility improvement in CD solutions. Using the CE value, the molar ratio (Drug:CD) was determined:(5) Drug:CD=1:(1+1/CE)

The nature of data set [2]: in vitro. Type of data set: in vitro ADME. The method, then:
Permeability coefficients of RS-186 and R-98 were measured through the PermeaPad barrier (PHABIOC, Germany, Espelkamp, www.permeapad.com, accessed on 20 May 2021) of an effective surface area of 0.785 cm^2 in a vertical type of Franz diffusion cell (PermeGear, Inc., Hellertown, PA, USA) with 7 mL volume. PermeaPad is a biomimetic membrane proposed by di Cagno and Bauer-Brandl for the fast screening of the permeability of the marketed drugs and drug-like compounds. In brief, the barrier was mounted between the donor and receptor chambers. The donor chamber was filled with a stock solution of the investigated substance in buffer solution at pH 2.0 or pH 7.4 and was stirred vigorously during the permeability experiment. The receptor compartment contained 1 mL of the respective fresh buffer. The system was thermostated at 310.15 ± 0.1 K. A probe of 0.5 mL was withdrawn every 30 min from the receptor chamber and replaced with an equal amount of the respective fresh buffer. The permeation process followed the reverse dialysis. The withdrawn samples were analyzed in 96-well UV black plate (Costar) via spectrophotometer (Spectramax 190; Molecular devices, Molecular Devices Corporation, California, CA, USA) at the appropriate wavelength. The permeation profiles were plotted as the amount of the permeated drug over the surface area ( dQ/A ) versus the time ( t ). The flux ( J ) was calculated as a slope of permeation profiles according to the equation:(6) J=dQ/A×dt
The apparent permeability coefficient ( Papp ) was calculated by normalizing the flux measured over the concentration of the drug in the donor compartment ( C0 ), as described by the equation:(7) Papp=J/Co
Each permeability experiment was repeated at least 3 times and the average value of Papp was determined.

Consider `O=C1S/C(=C\c2ccc(Cl)cc2)C(=O)N1CC(O)CN1CCN(CC(O)(Cn2cncn2)c2ccc(F)cc2F)CC1` (stereo not drawn) [RS-186, (Z)-5-(4-chlorobenzylidene)-3-(3-(4-(2-(2,4-difluorophenyl)-2-hydroxy-3-(1H-1,2,4-triazol-1-yl)propyl)piperazin-1-yl)-2-hydroxypropyl)thiazolidine-2,4-dione], for which the “increase of the complex stability as compared to L-173” value in data set [1] (298.15 K) was roughly 2.8 fold; in data set [1] (315.15 K), roughly 1.8 fold. Moreover, the “Complexation efficiency (CE)” value in data set [1] (pH 2.0, 298.15 K) is 35.4%; in data set [1] (pH 2.0, 303.15 K), 36.9%; in data set [1] (pH 2.0, 310.15 K) it was 39.1%; in data set [1] (pH 2.0, 313.15 K), 43.2%; in data set [1] (pH 7.4, 298.15 K) it was 10.3%; in data set [1] (pH 7.4, 303.15 K) it was 4.6%. In addition, the “Complexation efficiency (CE)” value is given as 1.7% in data set [1] (pH 7.4, 310.15 K) and 0.6% in data set [1] (pH 7.4, 313.15 K). Besides, the “apparent stability constant (KCS)” value in data set [1] (pH 2.0, 298.15 K) was 708.9 M⁻¹ and 708.9 ± 71.4 M⁻¹; in data set [1] (pH 2.0, 303.15 K) it was 688.0 ± 60.3 M⁻¹; in data set [1] (pH 2.0, 310.15 K), 646.7 ± 61.5 M⁻¹; in data set [1] (pH 2.0, 313.15 K), 623.6 ± 60.0 M⁻¹. In data set [1] (pH 2.0 stability constants (Table 2)), the “ability for complex formation with CD, racemic compound as compared to R-isomer” value is listed as 1.3 fold. Moreover, the “CE decrease with the temperature growth” value in data set [1] (pH 7.4) is 17 fold. The “permeability decrease up to 0.03 M concentration of CD in donor solution” value in data set [2] (buffer pH 7.4) was determined as 8.89 fold. Also, the “permeability classification (developers of PermeaPad)” value is listed as “low” in data set [2] (in the presence of 0.01 M CD) and “medium permeable” in data set [2] (pure buffers, classification of ref 18). In data set [2] (pH 2.0), the “permeability reduction up to 0.03 M concentration of CD in donor solution” value was found to be 8.72 fold. In data set [2] (pH 2.0, CD 0.01087 M, 310.15 K), the “Permeability Coefficient (Papp)” value is given as “(1.12 ± 0.09) × 10^−6 cm·s^−1”.
